Data: US20250122192A1, “5-PYRIMIDINECARBOXAMIDE DERIVATIVES AND METHODS OF USING THE SAME” (Rgenta Therapeutics, Inc., priority 2021, published 2025)
Where a name gives a salt, the structure may show the parent alone. Read-outs that look alike come from different tables or passages of the source.

System: PMS1
Assay: Mini-gene reporter assay-PMS1
Format: cell-based
Settings: Homo sapiens; for activation at 5 µM: PMS1 mini-gene firefly luciferase reporter in HEK293 cells, read-out: PMS1% Effect at 5 μM
Text: Biological Activity of the Compounds of the Present Disclosure Mini-gene reporter assay-PMS1
Mini-gene reporter constructs for each target site can be constructed by first PCR amplifying the region-of-interest including the sequence of the alternatively skipped, sequences of the immediate upstream and downstream introns, and sequences of the immediate upstream and downstream exons. Then the 3′end of the amplified sequence can be ligated to a firefly luciferase reporter gene and cloned into the pcDNA3.1 vector backbone. The final reporter construct can be transiently transfected into HEK293 cells using Lipofectamine 3000 transfection reagents. Compounds that can induce the inclusion of the skipped exon in the reporter construct would increase the reporter firefly luciferase activity.
Test compounds may be diluted in duplicates and dispensed into an assay plate. Transient mini-gene reporter cell line stock is resuspended and dispensed into the assay plate. Assay plates are then centrifuged and incubated. A luciferase reagent (e.g. ONE-Glo firefly luciferase reagent from Promega®) may be added to the assay plate and the luminescence (RLU) signals recorded. PMS1 EC50 values may be determined by curve fitting in Levenberg-Marquardt algorithm.

[1] = HEK293, PMS1 mini-gene firefly luciferase reporter transiently transfected into HEK293 cells, read-out: PMS1 IC50

Compound	IC50 [1] [nM]	also measured
CCOc1nc(N2CCC3(CC2)CNC3)ncc1C(=O)Nc1cn2cc(C)nc2c(C)n1 [Compound 86]	< 500	–
CCOc1nc(N2C[C@H]3CNCC[C@H]3C2)ncc1C(=O)Nc1cn2cc(C)nc2c(C)n1 (racemic) [Compound 105]	< 500	–
CCOc1nc(N2CCCNCC2)ncc1C(=O)Nc1cc(F)c2nc(C)cn2c1 [Compound 15, 2-(1,4-diazepan-1-yl)-4-ethoxy-N-{8-fluoro-2-methylimidazo[1,2-a]pyridin-6-yl}pyrimidine-5-carboxamide]	< 500	–
CCOc1nc(N2CCNC(CC)C2)ncc1C(=O)Nc1cn2cc(C)nc2c(C)n1 (stereo not drawn) [Compound 63]	500 to 1000	–
CCOc1nc(C2CCNC2)ncc1C(=O)Nc1cc(F)c2nc(C)cn2c1 (stereo not drawn) [Compound 316, 4-ethoxy-N-8-fluoro-2-methylimidazo[1,2-a]pyridin-6-yl-2-(pyrrolidin-3-yl)-pyrimidine-5-carboxamide]	–	activation at 5 µM: 50 to 75%
CCOc1nc(N2CC(CO)C3(CNC3)C2)ncc1C(=O)Nc1cn2cc(C)nc2c(C)n1 (stereo not drawn) [Compound 50]	–	activation at 5 µM: < 50%
CCOc1nc(N2CCCC(C3CNC3)C2)ncc1C(=O)Nc1cc(F)c2nc(C)cn2c1 (stereo not drawn) [Compound 159]	> 3000	–
CCOc1nc(N2CCCC2C(=O)N2CCNCC2)ncc1C(=O)Nc1cc(F)c2nc(C)cn2c1 (stereo not drawn) [Compound 196]	–	activation at 5 µM: < 50%
Cc1cn2cc(NC(=O)c3cnc(N4CCNCC4)nc3)cc(F)c2n1 [Compound 21, N-{8-fluoro-2-methylimidazo[1,2-a]pyridin-6-yl}-2-(piperazin-1-yl)pyrimidine-5-carboxamide]	1000 to 3000	–
CCOc1nc(N2CC[C@@H](NC)C2)ncc1C(=O)Nc1ccn2nc(C)cc2c1 [Compound 313, 4-ethoxy-2-[(3R)-3-(methylamino)pyrrolidin-1-yl]-N-2-methylpyrazolo[1,5-a]-pyridin-5-ylpyrimidine-5-carboxamide]	–	activation at 5 µM: > 75%
CCOc1nc(N2CC3CCC2CN3)ncc1C(=O)Nc1cn2cc(C)nc2c(C)n1 (stereo not drawn) [Compound 53]	500 to 1000	–
CCOc1nc(N2CCC3(CC2)COCCN3)ncc1C(=O)Nc1cn2cc(C)nc2c(C)n1 [Compound 94]	> 3000	–
CCOc1nc(N2CCC3(CCCNC3)C2)ncc1C(=O)Nc1cn2cc(C)nc2c(C)n1 (stereo not drawn) [Compound 106]	> 3000	–
CCOc1nc(N2CCC(CNC)CC2)ncc1C(=O)Nc1cn2cc(C)nc2c(C)n1 [Compound 76]	< 500	–
CCOc1nc(N2CCC3(CCNC3)CC2)ncc1C(=O)Nc1cn2cc(C)nc2c(C)n1 [Compound 89]	> 3000	–
CCOc1nc(N2CC(C3CNC3)C2)ncc1C(=O)Nc1cn2cc(C)nc2c(C)n1 [Compound 52]	> 3000	–
CCOc1nc(N2CCNCC2C)ncc1C(=O)Nc1cn2cc(C)nc2c(C)n1 (stereo not drawn) [Compound 42]	500 to 1000	–

Compound	IC50 [1] [nM]	also measured
CCOc1nc(N(CC)C2CCNCC2)ncc1C(=O)Nc1ccn2nc(C)cc2c1 [Compound 288, 4-ethoxy-2-(ethyl(piperidin-4-yl)amino)-N-(2-methylpyrazolo[1,5-a]pyridin-5-yl)pyrimidine-5-carboxamide formate]	–	IC50 (HEK293, read-out: PMS1 IC50 (nM)): 500 to 1000 nM
CCOc1nc(N(C)C2CCCNCC2)ncc1C(=O)Nc1cc(F)c2nc(C)cn2c1 (stereo not drawn) [Compound 173]	< 500	–
CCOc1nc(N2CCC3(CCCCN3)C2)ncc1C(=O)Nc1cn2cc(C)nc2c(C)n1 (stereo not drawn) [Compound 96]	1000 to 3000	–
CCOc1nc(N(C)[C@@H]2CNC[C@H]2O)ncc1C(=O)Nc1cc(F)c2nc(C)cn2c1 (racemic) [Compound 174]	1000 to 3000	–
CCOc1nc(N(CC)C2CCNCC2)ncc1C(=O)Nc1cc(F)c2nn(C)cc2c1 [Compound 258, 4-ethoxy-2-(ethyl(piperidin-4-yl)amino)-N-(7-fluoro-2-methyl-2H-indazol-5-yl)pyrimidine-5-carboxamide formate]	< 500	–
CCOc1nc(N2CC(C3CCCCCN3)C2)ncc1C(=O)Nc1cn2cc(C)nc2c(C)n1 (stereo not drawn) [Compound 59]	< 500	–
CCOc1nc(N2CCNCC(F)(F)C2)ncc1C(=O)Nc1cc(F)c2nc(C)cn2c1 [Compound 140]	–	activation at 5 µM: < 50%
CCOc1nc(N2CC3CNCC3C2)ncc1C(=O)Nc1cn2cc(C)nc2c(C)n1 (stereo not drawn) [Compound 20, N-{2,8-dimethylimidazo[1,2-a]pyrazin-6-yl}-4-ethoxy-2-{octahydropyrrolo[3,4-c]pyrrol-2-yl}pyrimidine-5-carboxamide]	< 500	–
CCOc1nc(N2CC3(CNCCO3)C2)ncc1C(=O)Nc1cn2cc(C)nc2c(C)n1 [Compound 104]	> 3000	–
CCOc1nc(N2CCC(C3(O)CNC3)CC2)ncc1C(=O)Nc1cc(F)c2nc(C)cn2c1 [Compound 129]	> 3000	–
CCOc1nc(N2CCNCC(C)(C)C2)ncc1C(=O)Nc1cc(F)c2nc(C)cn2c1 [Compound 118]	1000 to 3000	–
CCOc1nc(N2CCNC(C)CC2)ncc1C(=O)Nc1cn2cc(C)nc2c(C)n1 (stereo not drawn) [Compound 71]	500 to 1000	–
CCOc1nc(N2CCNCC2)ncc1C(=O)Nc1cn2cc(C)nc2cn1 [Compound 9, 4-ethoxy-N-{2-methylimidazo[1,2-a]pyrazin-6-yl}-2-(piperazin-1-yl)pyrimidine-5-carboxamide]	1000 to 3000	–
CCOc1nc(N2CCC3(CNC3)C2)ncc1C(=O)Nc1cn2cc(C)nc2c(C)n1 [Compound 78]	< 500	–
CCNC1COC2(C1)CN(c1ncc(C(=O)Nc3cn4cc(C)nc4c(C)n3)c(OCC)n1)C2 (stereo not drawn) [Compound 45]	> 3000	–
CCOc1nc(N2CC(C3CCNC3)C2)ncc1C(=O)Nc1cn2cc(C)nc2c(C)n1 (stereo not drawn) [Compound 69]	–	activation at 5 µM: 50 to 75%
CCOc1nc(N2CC34CCCC3(CNC4)C2)ncc1C(=O)Nc1cc(F)c2nc(C)cn2c1 (stereo not drawn) [Compound 151]	1000 to 3000	–

More lines, main results first:

IC50 [1] [nM]	Compound	also measured
500 to 1000	CCOc1nc(N2CCCC(CNC)C2)ncc1C(=O)Nc1cc(F)c2nc(C)cn2c1 (stereo not drawn) [Compound 228]	–
< 500	CCOc1nc(N2CC[C@H](NC)C2)ncc1C(=O)Nc1cc(F)c2nc(C)cn2c1 [Compound 261, (S)-4-ethoxy-N-(8-fluoro-2-methylimidazo[1,2-a]pyridin-6-yl)-2-(3-(methylamino)pyrrolidin-1-yl)pyrimidine-5-carboxamide formate]	–
500 to 1000	CCOc1nc(N(C)CC2CCNC2)ncc1C(=O)Nc1cc(F)c2nc(C)cn2c1 (stereo not drawn) [Compound 210]	–
< 500	CCOc1nc(N2CC[C@H](CNC)C2)ncc1C(=O)Nc1cc(F)c2nc(C)cn2c1 [Compound 297, (R)-4-ethoxy-N-(8-fluoro-2-methylimidazo[1,2-a]pyridin-6-yl)-2-(3-((methylamino)methyl)pyrrolidin-1-yl)pyrimidine-5-carboxamide 4-methylbenzenesulfonate]	–
< 500	CCOc1nc(N2CCN[C@@H](C)C2)ncc1C(=O)Nc1cc(F)c2nn(C)cc2c1 [Compound 279, (S)-4-ethoxy-N-(7-fluoro-2-methyl-2H-indazol-5-yl)-2-(3-methylpiperazin-1-yl)pyrimidine-5-carboxamide formate]	–
> 3000	CCOc1nc(N2CCCC3(CCNC3)C2)ncc1C(=O)Nc1cc(F)c2nc(C)cn2c1 (stereo not drawn) [Compound 183]	–
1000 to 3000	CCOc1nc(N2CC[C@@H](NC)C2)ncc1C(=O)Nc1ccc2nc(C)cn2c1 [Compound 289, (R)-4-ethoxy-2-(3-(methylamino)pyrrolidin-1-yl)-N-(2-methylimidazo[1,2-a]pyridin-6-yl)pyrimidine-5-carboxamide formate]	–
< 500	CCOc1nc(N2CC3(CCNC3)C2)ncc1C(=O)Nc1cc(F)c2nc(C)cn2c1 [Compound 212]	–
> 3000	COc1nc(NC2CCNCC2)ncc1C(=O)Nc1cn2cc(C)nc2cn1 [Compound 271, 4-methoxy-N-(2-methylimidazo[1,2-a]pyrazin-6-yl)-2-(piperidin-4-ylamino) pyrimidine-5-carboxamide 2,2,2-trifluoroacetate]	–
1000 to 3000	CCOc1nc(N2CC[C@@H]3CNC[C@@H]3CC2)ncc1C(=O)Nc1cc(F)c2nc(C)cn2c1 [Compound 181]	–
1000 to 3000	CCOc1nc(N2CCC(CN(C)C)CC2)ncc1C(=O)Nc1cc(F)c2nc(C)cn2c1 [Compound 300, 2-(4-((dimethylamino)methyl)piperidin-1-yl)-4-ethoxy-N-(8-fluoro-2-methylimidazo[1,2-a]pyridin-6-yl)pyrimidine-5-carboxamide formate]	–
1000 to 3000	CCOc1nc(N2CCOC3(CCNC3)C2)ncc1C(=O)Nc1cc(F)c2nc(C)cn2c1 (stereo not drawn) [Compound 195]	–
> 3000	CCOc1nc(N(CC)C2CCCNCC2)ncc1C(=O)Nc1cn2cc(C)nc2c(C)n1 (stereo not drawn) [Compound 249]	–
500 to 1000	CCNC1CCCN(c2ncc(C(=O)Nc3cc(F)c4nc(C)cn4c3)c(OCC)n2)C1 (stereo not drawn) [Compound 176]	–
< 500	CCOc1nc(N2CCCC(C3CCCN3)C2)ncc1C(=O)Nc1cc(F)c2nc(C)cn2c1 (stereo not drawn) [Compound 180]	–
< 500	CCOc1nc(N2CCC3CCNCC32)ncc1C(=O)Nc1cc(F)c2nc(C)cn2c1 (stereo not drawn) [Compound 201]	–
1000 to 3000	CCOc1nc(N2CCC(NC)C2)ncc1C(=O)Nc1cnc2nc(C)cn2c1 (stereo not drawn) [Compound 287, 4-ethoxy-2-(3-(methylamino)pyrrolidin-1-yl)-N-(2-methylimidazo[1,2-a]pyrimidin-6-yl)pyrimidine-5-carboxamide fomate]	–
1000 to 3000	CCOc1nc(N(C)CC2CCCNC2)ncc1C(=O)Nc1cc(F)c2nc(C)cn2c1 (stereo not drawn) [Compound 217]	–
1000 to 3000	CCOc1nc(N(CC)C2CCCNC2)ncc1C(=O)Nc1cc(F)c2nc(C)cn2c1 (stereo not drawn) [Compound 215]	–
1000 to 3000	CCOc1nc(N(C)CC2CCCN2)ncc1C(=O)Nc1cc(F)c2nc(C)cn2c1 (stereo not drawn) [Compound 200]	–
